Results from publication doi:10.1101/2025.06.19.660642, “Discovery of orally bioavailable Zika and West Nile Virus antiviral compounds targeting the NS2B-NS3 protease” (bioRxiv, 2025).
Where two headings read alike, the source gives them in different places.

Key:
ZIKV NS2B-NS3 protease = biological target: T1, ZIKV NS2B-NS3 protease (Zika virus, UniProt A0A024B7W1); test: ZIKV NS2B-NS3 protease biochemical FRET assay
T1 construct: directed at the co-expressed ZIKV NS2B-NS3 protease

ZIKV = ZIKV antiviral assay (virus-induced cytopathy) in Vero E6 cells with P-gp inhibitor; assay type: cell-based; conditions: Zika virus, Vero C1008, 168 h, read-out: ZIKV EC50
Procedure: (§1) Figure 5. (A) Further characterization of ASAP-0027808. Papp was determined in MDR1-MDCK cells. Antiviral assays were performed in Vero E6 cells in a 7-day infection using 0.5 uM CP100356 as a P-gp inhibitor (see Supporting Information for more details). (B) The compound was successfully crystallized with ZIKV NS2B-NS3. ASAP-0016806 and ASAP-0027808 both appear to interact with the same residues (catalytic triad His51/Asp75/Ser135 colored yellow, other key residues Tyr161, NS2B Ser81, and NS2B Asp83 colored green). (C) Dose-dependent suppression of ZIKV-induced cytopathy in VeroE6 cells (n=2); no changes to cell viability of uninfected cells treated with the inhibitor was observed. Cells were co-treated with 0.5 μM CP100356 (as P-gp inhibitor). TEXT PRINTED IN THE PICTURE: (A) ASAP-0027808: ZIKV NS2B-NS3 Ki (μM): 0.090; ZIKV EC50 / CC50 (μM): 4.6 / >50; WNV NS2B-NS3 Ki (μM): 2.9; MW (g/mol): 313; CLint,app, HLM (μL/min/mg): < 10; MDR1-MDCK Papp A→B, B→A (10^-6 cm/sec): 2.0 ,11.0; Kinetic solubility (pH 7.4, μM): 279; LogD: 0.9

[1] = Cytotoxicity in uninfected Vero E6 cells; assay type: cell-based; conditions: African green monkey; Vero E6 cells, 0.5 uM CP100356 as P-gp inhibitor; read-out: CC50
Procedure: as §1

Vero E6 cells = test: Cytotoxicity in uninfected Vero E6 cells; assay type: cell-based; conditions: Vero E6 cells treated with a P-gp inhibitor, up to 50 μM
Procedure: as §1

Kinetic solubility = conditions: pH 7.4
MDR1-MDCK permeability = assay type: in vitro ADME; conditions: dog
Procedure: as §1

WNV NS2B-NS3 protease = biological target: T2, WNV NS2B-NS3 protease (West Nile virus, UniProt P06935); test: WNV NS2B-NS3 protease biochemical inhibition
T2 construct: some activity against the WNV NS2B-NS3 protease

urokinase = biological target: T3, urokinase (Homo sapiens, UniProt P00749); test: Eurofins human protease selectivity panel; assay type: biochemical; conditions: read-out: inhibitory activity against urokinase
T3 construct: Eurofins
From the text: Upon crystallization in the active site of ZIKV NS2B-NS3, we noted the compound participating with most of the same residues as ASAP-0016806 (Figure 5B): an aromatic interaction with Tyr161, a hydrogen-bonding interaction with Gly151, an aromatic interaction with His51, and an electrostatic interaction with Asp83 (with a possible additional hydrogen bonding interaction to Ser81).

[2] = Microsomal clearance, HLM; conditions: human, microsomes
[3] = ZIKV NS2B-NS3 Ki (uM), library 1, supplement

T1 sequence (A0A024B7W1 1503-1680): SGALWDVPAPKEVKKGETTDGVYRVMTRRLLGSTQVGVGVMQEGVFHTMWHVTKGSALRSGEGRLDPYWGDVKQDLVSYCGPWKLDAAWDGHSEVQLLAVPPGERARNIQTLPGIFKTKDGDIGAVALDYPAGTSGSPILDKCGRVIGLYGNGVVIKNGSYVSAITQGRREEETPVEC
T1 sequence (A0A024B7W1 1425-1464): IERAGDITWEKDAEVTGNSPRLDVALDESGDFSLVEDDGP
T2 sequence (P06935 1424-1463): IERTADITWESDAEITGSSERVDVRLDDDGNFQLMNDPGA
T2 sequence (P06935 1502-1679): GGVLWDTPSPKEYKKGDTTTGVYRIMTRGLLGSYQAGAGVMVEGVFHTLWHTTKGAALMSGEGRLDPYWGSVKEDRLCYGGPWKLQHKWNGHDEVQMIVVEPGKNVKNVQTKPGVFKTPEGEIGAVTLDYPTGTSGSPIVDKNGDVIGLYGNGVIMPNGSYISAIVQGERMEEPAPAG

## C[C@@H](N)c1cccc(NC(=O)c2cc(Cl)cc(NC(=O)OCc3ccccc3)c2)c1 [ASAP-0021650, C[C@@H](N)c1cccc(NC(=O)c2cc(Cl)cc(NC(=O)OCc3ccccc3)c2)c1]
ZIKV NS2B-NS3 protease; [3]
  Ki: 20.4 µM

## Cn1nc2c(c1NC(=O)c1cc(Cl)cc(NC(=O)OCc3ccccc3)c1)CNC2 [ASAP-0020883, Cn1nc2c(c1NC(=O)c1cc(Cl)cc(NC(=O)OCc3ccccc3)c1)CNC2]
ZIKV NS2B-NS3 protease; [3]
  Ki: > 89.3 µM

## Cn1nc(NC(=O)c2cc(Cl)cc(NC(=O)OCc3ccccc3)c2)c2c1CNC2 [ASAP-0021036, Cn1nc(NC(=O)c2cc(Cl)cc(NC(=O)OCc3ccccc3)c2)c2c1CNC2]
ZIKV NS2B-NS3 protease; [3]
  Ki: > 89.3 µM

## NC1CCN(C(=O)c2cc(Cl)cc(NC(=O)OCc3ccccc3)c2)CC1 [ASAP-0017695, NC1CCN(C(=O)c2cc(Cl)cc(NC(=O)OCc3ccccc3)c2)CC1]
ZIKV NS2B-NS3 protease; [3]
  Ki: > 89.3 µM

## C[C@H](N)c1cccc(NC(=O)c2cc(Cl)cc(NC(=O)OCc3ccccc3)c2)c1 [ASAP-0021091, C[C@H](N)c1cccc(NC(=O)c2cc(Cl)cc(NC(=O)OCc3ccccc3)c2)c1]
ZIKV NS2B-NS3 protease; [3]
  Ki: 12.3 µM

## CC(C)N1CCc2nc(NC(=O)c3cc(Cl)cc(NC(=O)OCc4ccccc4)c3)sc2C1 [ASAP-0020812, CC(C)N1CCc2nc(NC(=O)c3cc(Cl)cc(NC(=O)OCc4ccccc4)c3)sc2C1]
ZIKV NS2B-NS3 protease; [3]
  Ki: > 89.3 µM

## C=CC[C@@H](Nc1ccc2c(c1)CNC2)c1cc(Cl)cc2[nH]ncc12 [ASAP-0029049]
ZIKV NS2B-NS3 protease; ZIKV NS2B-NS3 Ki
  Ki: 7.1 µM

## O=C(Nc1cc(Cl)cc(C(=O)Nc2nccn2C2CNC2)c1)OCc1ccccc1 [ASAP-0021559, O=C(Nc1cc(Cl)cc(C(=O)Nc2nccn2C2CNC2)c1)OCc1ccccc1]
ZIKV NS2B-NS3 protease; [3]
  Ki: > 89.3 µM

## NCc1ccc(O)c(NC(=O)c2cc(Cl)cc(NC(=O)OCc3ccccc3)c2)c1 [ASAP-0021142, NCc1ccc(O)c(NC(=O)c2cc(Cl)cc(NC(=O)OCc3ccccc3)c2)c1]
ZIKV NS2B-NS3 protease; [3]
  Ki: 16.3 µM

## NCCCc1cccc(NC(=O)c2cc(Cl)cc(NC(=O)OCc3ccccc3)c2)n1 [ASAP-0021169, NCCCc1cccc(NC(=O)c2cc(Cl)cc(NC(=O)OCc3ccccc3)c2)n1]
ZIKV NS2B-NS3 protease; ZIKV NS2B-NS3 pKi, library 1, supplement
  Ki: 17 µM

## O=C(Nc1ccc2c(c1)CNC2)c1cc(Cl)cc2[nH]ncc12 [ASAP-0027808]
ZIKV
  EC50: 4.6 µM
[1]
  CC50: > 50 µM
Vero E6 cells
  cytotoxicity: no apparent cytotoxicity
LogD
  logD: 0.9
Kinetic solubility
  Kinetic solubility: 279 µM
MDR1-MDCK permeability; MDCK-MDR1, A→B
  Papp A→B: 2 ×10⁻⁶ cm/s
MDR1-MDCK permeability; MDCK-MDR1, B→A
  Papp B→A: 11 ×10⁻⁶ cm/s
WNV NS2B-NS3 protease
  Ki: 2.9 µM
ZIKV NS2B-NS3 protease; Ligand efficiency = pKi / heavy atom count
  Ligand efficiency (LE): 0.452
ZIKV NS2B-NS3 protease; ZIKV NS2B-NS3 Ki
  Ki: 0.09 µM
urokinase
  inhibition at 10 µM: 21%
[2]
  microsomal CLint: < 10 µL/min/mg

## NCCc1ccc(NC(=O)c2cc(Cl)cc(NC(=O)OCc3ccccc3)c2)cc1 [ASAP-0017692, NCCc1ccc(NC(=O)c2cc(Cl)cc(NC(=O)OCc3ccccc3)c2)cc1]
ZIKV NS2B-NS3 protease; [3]
  Ki: 9.64 µM

## O=C(Nc1cc(Cl)cc(C(=O)NC[C@@H]2CC3(CNC3)CO2)c1)OCc1ccccc1 [ASAP-0021589, O=C(Nc1cc(Cl)cc(C(=O)NC[C@@H]2CC3(CNC3)CO2)c1)OCc1ccccc1 ¦&1:13¦]
ZIKV NS2B-NS3 protease; library 1, supplement
  ZIKV NS2B-NS3 pKi: 4.38
ZIKV NS2B-NS3 protease; library 1, supplement, read-out: ZIKV NS2B-NS3 Ki
  Ki: 41.3 µM

## NCc1ccc(CNC(=O)c2cc(Cl)cc(NC(=O)OCc3ccccc3)c2)c(F)c1 [ASAP-0021676, NCc1ccc(CNC(=O)c2cc(Cl)cc(NC(=O)OCc3ccccc3)c2)c(F)c1]
ZIKV NS2B-NS3 protease; [3]
  Ki: 29.5 µM

## CC(C)NC(=O)[C@@H](Nc1ccc2c(c1)CN(C)C2)c1cc(Cl)cc2[nH]ncc12 [ASAP-0031156]
WNV NS2B-NS3 protease
  Ki: 1.6 µM
ZIKV NS2B-NS3 protease; ZIKV NS2B-NS3 Ki
  Ki: 0.48 µM

## Cc1cc(C(Nc2ccc3c(c2)CNC3)C(=O)NCC(F)F)cc(C(F)(F)F)c1 (stereo not drawn) [ASAP-0031651]
ZIKV
  EC50: 0.45 µM
ZIKV NS2B-NS3 protease; Ki, ZIKV NS2B-NS3
  Ki: 0.0078 µM
